Marks after values point to notes of the source that are not given here.
How the values were obtained:
[1] = Overall antioxidant power
[2] = Antiradical activity, trapping of the free radical DPPH; format: biochemical; settings: fixed concentration of 0.44 mg/ml ascorbic acid eq; tested in combination with Mg(OH)2 in the proportions present in the powder of the invention

With `O=C1O[C@H]([C@@H](O)CO)C(O)=C1O` [Ascorbic acid] the Overall antioxidant power [1] was 34 g/100 g of product in ascorbic acid eq and the “Antiradical activity (% of trapping of the free radical DPPH)” value [2] was 70.6* %.

— US10165789B2, “Acerola powder for use as a substitute for ascorbic acid in the agri-food field” (DIANA NATURALS, priority 2012, dated 2019)
